Assay results: patent US4256750A, “Pharmaceutical compositions” (Wulfing; Johann A., priority 1979, dated 1981)
Values joined by “and” are separate entries in the source; they are usually repeats but may differ in a detail not shown here. Equal values may be shown once.

Assays:
[1] = system: ischaemic skeletal muscle (m. gastrocnemius); assay: pO2 (oxygen tension) measurement in ischaemic skeletal muscle of anaesthetized cats; type: in vivo, cat; settings: for change of pO2 of ischaemic skeletal muscle (in words): B and C at 5-32 mg/kg compared with Compound A at 125 μg/kg; for effect of Compound B, ΔpO2: 5 mg/kg i.v.; for effect of Compound B, ΔpO2 / effect of Compound A, ΔpO2: individual cats; for effect of Compound A, ΔpO2: 125 μg/kg i.v.
Experimental: pO2 was measured polarographically using Pt-needle electrodes (modified according to Baumgartl and Lubbers, 1973). The reference electrode, an Ag/A/AgCl system was sputtered on the glass mantle of the cathode, or it was a separate electrode. The cathode was coated with a polystyrol and a collodium membrane. A constant voltage supply provided a polarizing voltage between 600 and 800 mV. The reducing current was measured by a nano-ampere amplifying meter. The cathode was inserted in the tissue by means of a motor-driven micromanipulator.
A pO2 -electrode was inserted in the muscle tissue (m. gastrocnemius) of both hindlegs of an anaesthetized cat. After recording the pO2 of the normal perfused muscle, the blood flow to one measuring site was restricted by ligating the femoral artery. The pO2 dropped steeply and the tissue became ischaemic. After a few minutes, the pO2 increased and then decreased again. The values were constant after 30 to 60 min. After having reached a constant level of pO2, the vehicle was given, followed by the test substance.
The mean value and the standard deviation were calculated, in order to check the significance of the effect.

[2] = Solubility in water / aqueous media; type: physicochemical
[3] = system: ischaemic skeletal muscle (calf muscles); assay: Skeletal muscle contractility in anaesthetized cats with restricted femoral blood flow; type: in vivo, cat; settings: for change of contractility of ischaemic skeletal muscle (in words) / contractility (% initial value): cat; for change of contractility of ischaemic skeletal muscle (in words): B and C at 5-32 mg/kg compared with Compound A at 125 μg/kg; for contractility (% initial value): ischaemic muscle
Experimental: (§1) Cats of either sex were anaesthetized with urethane/chloralose (120/60 mg/kg i.p.). In the course of the experiments, pentobarbital was injected intravenously (V. antebrachii ceph.) via a plastic tube. The intraduodenal (i.d.) application of compound was conducted by means of a plastic catheter, which was inserted into the duodenum.
(§2) Cats of either sex were anaesthetized as for pO2 measurement. After dissection of the skin of the calf muscles, the sciatic nerve was cut about 3 cm proximal to the knee. The tendon of the calf muscles was cut and connected with an isometric force transducer (SWEMA, SG 3). In order to maintain constant differences and a resting tension of 100 p, the hind limb was fixed at the tibia by means of a clamp. Direct stimulation of the muscles consisted of square wave pulses of 4 msec duration at a frequency of 2 Hz and at a voltage of 50 V. In order to keep the muscles wet and at a normal temperature, the muscles were continuously superfused by means of a NaCl-solution (0.9%, 38° C.). Femoral blood flow was restricted by a graded occlusion of the artery leading to a reduction of contractility by ca. 30%. After having reached a constant level of the contraction force, the vehicle (NaCl and Methocel, respectively) was injected, followed by the test substance.

[4] = in vivo; cited from earlier work
[5] = Blood pressure (BP) change in the cat contractility experiment (Table 3); type: in vivo
Experimental: as §1, §2

[6] = contractility and pO2 of ischaemic skeletal muscle, cat
[7] = i.d., Compound A 125 μg/kg, Compound B 32 mg/kg, Compound C 12.5 mg/kg
[8] = control (hind limb not ligated)
[9] = i.v., Compound A 50 μg/kg, Compound B 5 mg/kg

Q: Which results are given for `CCCCn1c(=O)c2c(ncn2CCC(C)=O)n(CCCC)c1=O` [Compound C, 1,3-di-n-butyl-7-(3-oxobutyl)xanthine, reference compound]?
A: change of pO2 of ischaemic skeletal muscle (in words) ([1]; cat): less pronounced; dose range of activity [1, 6]: 5 to 32 mg/kg; water solubility (in words) ([2]; water, reason for not testing i.v.): low water solubility; change of contractility of ischaemic skeletal muscle (in words) [3]: less pronounced; contractility (% initial value) [3, 7]: 22 % initial value

Q: Which “effect of Compound B, ΔpO2” value [1, 8] does the source give for `CC(=O)CCCCn1c(=O)c2c(ncn2C)n(C)c1=O` [Compound B, pentoxyphylline, reference compound] here?
A: Its value is 0.3 Torr and 1.02 Torr and -2.4 Torr and 14.3 Torr and -0.9 Torr.

Q: What about the “effect of Compound B, ΔpO2” value ([1]; hind limb art. ligation) of the same compound?
A: The value was -0.16 Torr and -1.5 Torr.

Q: What about the “Mean effect of Compound B compared to Compound A” value ([1]; B 5 mg/kg vs A 125 μg/kg, i.v.) of the same compound?
A: The value was 21.3%.

Q: And the “change of pO2 of ischaemic skeletal muscle (in words)” value ([1]; cat)?
A: The value was “less pronounced”.

Q: What about the “oral toxicity (in words)” value [4] of the same compound?
A: Its value is “low oral toxicity”.

Q: What about the “change of contractility of ischaemic skeletal muscle (in words)” value [3] of the same compound?
A: Its value is “less pronounced”.

Q: What about the “contractility (% initial value)” value [3, 7] of the same compound?
A: The value was 23 % initial value.

Q: And the “contractility (% initial value)” value [3, 9]?
A: Its value is 9 % initial value.

Q: Which results are given for `CCCCn1c(=O)c2c(ncn2CC(C)=O)n(CCCC)c1=O` [Compound A, 1,3-di-n-butyl-7-(2-oxopropyl)xanthine]?
A: effect of Compound A, ΔpO2 [1, 8]: 13.2 Torr and 3.8 Torr and 3.5 Torr and 19.3 Torr and 3.4 Torr; effect of Compound A, ΔpO2 ([1]; hind limb art. ligation): 6.2 Torr and 7.3 Torr and 5.2 Torr and 27.1 Torr and 11.2 Torr and 5.6 Torr; change of pO2 of ischaemic skeletal muscle (in words) ([1]; cat): distinct increase; high activity in the μg-range (dose range) [1, 6]: 50 to 125 µg/kg; solubility in aqueous media (in words) ([2]; aqueous media): only sparingly soluble; Δ initial phase BP decrease, t (time interval to reach initial values) ([5]; 50 μg/kg i.v.): 2 min; Δ second phase BP increase, t (time interval to reach initial values) ([5]; 50 μg/kg i.v.): 33 min; Δ initial phase BP decrease ([5]; 50 μg/kg i.v., mean, n 4): -14.0 percentage of initial values; Δ second phase BP increase ([5]; 50 μg/kg i.v., mean, n 4): +17.0 percentage of initial values; Δ initial phase BP decrease, t (time interval to reach initial values) ([5]; 125 μg/kg i.v.): 3 min; Δ second phase BP increase, t (time interval to reach initial values) ([5]; 125 μg/kg i.v.): 32 min; Δ initial phase BP decrease ([5]; 125 μg/kg i.v., mean): -23.1 percentage of initial values; Δ second phase BP increase ([5]; 125 μg/kg i.v., mean): +10.8 percentage of initial values; Δ initial phase BP decrease ([5]; 313 μg/kg i.v., n = 1): -25.0 percentage of initial values; Δ initial phase BP decrease, t (time interval to reach initial values) ([5]; 313 μg/kg i.v., n = 1): 2 min; Δ second phase BP increase ([5]; 313 μg/kg i.v., n = 1): +15.0 percentage of initial values; Δ second phase BP increase, t (time interval to reach initial values) ([5]; 313 μg/kg i.v., n = 1): 6 min; Δ muscle contract., t (time interval to reach initial values) ([3]; 50 μg/kg i.v.): > 60 min; Δ muscle contract. ([3]; 50 μg/kg i.v., mean, n 4): +36.0 percentage of initial values; Δ muscle contract., t (time interval to reach initial values) ([3]; 125 μg/kg i.v.): > 60 min; Δ muscle contract. ([3]; 125 μg/kg i.v., mean): +19.0 percentage of initial values; Δ muscle contract. ([3]; 313 μg/kg i.v., n = 1): +25.0 percentage of initial values; Δ muscle contract., t (time interval to reach initial values) ([3]; 313 μg/kg i.v., n = 1): > 60 min; change of contractility of ischaemic skeletal muscle (in words) [3]: distinct increase; contractility (% initial value) [3, 7]: 32 % initial value; contractility (% initial value) [3, 9]: 36 % initial value
